Experimental data taken from article PMC4397719 (Pharmacogenomics and Personalized Medicine, 2015).

How the values were obtained:
CD-3e+ T-cells = assay: Flow cytometry viability; format: cell-based, mouse; conditions: 4 hours; for sensitivity of T-cells (viability) compared to other cell populations: 15 nM to 100 μM
[1] = system: normal immune cells (splenocyte immune cell subpopulations); conditions: 15 nM to 100 μM, 4 hours

Compound | sensitivity of T-cells (viability) compared to other cell populations (CD-3e+ T-cells) | toxicity to normal immune cells (viability) [1] | IC50 (viability) (CD-3e+ T-cells; T-cells, highest concentration of 100 μM, 36 strains)
Cn1c(=O)n(-c2ccc(C(C)(C)C#N)cc2)c2c3cc(-c4cnc5ccccc5c4)ccc3ncc21 [BEZ-235] | less sensitive and less variable | less toxic to normal immune cells than the anthracycline agents | –
Cn1cnc2c(F)c(Nc3ccc(Br)cc3Cl)c(C(=O)NOCCO)cc21 [selumetinib] | less sensitive and less variable | less toxic to normal immune cells than the anthracycline agents | –
COc1cccc2c1C(=O)c1c(O)c3c(c(O)c1C2=O)C[C@@](O)(C(=O)CO)C[C@@H]3O[C@H]1C[C@H](N)[C@H](O)[C@H](C)O1 [doxorubicin] | least sensitive | – | few strains reaching the IC50 at the highest concentration of 100 μM
CC(=O)[C@]1(O)Cc2c(O)c3c(c(O)c2[C@@H](O[C@H]2C[C@H](N)[C@H](O)[C@H](C)O2)C1)C(=O)c1ccccc1C3=O [idarubicin] | less sensitive than B-cells | – | –
